What was measured:
Type in all cases: cell-based, human
[1] = tested on: K562 cells; experiment: Binding of FITC-fibrinogen to glycoprotein IIb/IIIa complexes of differentiated K562 cells (FACS); conditions: K562 cells on OP9 cells, 40 μg/ml, 5 days, activated with 100 nM PMA
Text: Bone marrow progenitor cells, such as K562 cells, have glycoprotein IIb/IIIa complexes expressed thereon at a low level, but the number of complexes increases as the cells increase in size according to differentiation into megakaryocytes. By taking advantage of the fact that fibrinogens, which play a key role in blood clotting, bind to activated glycoprotein IIb/IIIa (GP IIb/IIIa) complex, the differentiation of K562 cells into megakaryocytes by (R)-NALPCE was investigated.
A process similar to that of Experimental Example 8 was conducted. OP9 cells were aliquoted at a density of 1×10^5 cells in 6-well plates and incubated for 24 hrs. After the OP9 cells were uniformly attached onto the bottom of the plates, K562 cells were layered at a density of 1×10^5 cells over the OP9 cells in 6-well plates. The cells were treated with 40 μg/ml of (R)-NALPCE before incubation in a day-dependent manner for 5 days. The (R)-NALPCE-treated K562 cells were transferred to 60 mm-dishes everyday and treated with 100 nM of PMA for 30 min to activate glycoprotein IIb/IIIa complexes. The cells thus differentiated were collected and suspended in 50 μl of PBS. […] Following the addition of […] of PBS, the amount of fibrinogen bound to the surface of the activated K562 cells was quantitatively determined as fluorescence was analyzed on a fluorescence-activated cell sorter (FACS) (Aria) using a Cellquest program.

[2] = tested on: HEL cells; experiment: Differentiation inductivity, lineage receptor expression by FACS, HEL cells; conditions: 5 μg/ml (R)-NALPCE 5 days or 10 nM PMA 3 days
Method: HEL cells were aliquoted at a density of 3×10^5 cells per well in 6-well plates and treated separately with 5 μg/ml of (R)-NALPCE and 10 nM of 12-phorbol myristate-13-acetate (PMA) (Calbiochem.), followed by incubation for 5 and 3 days, respectively. After centrifugation (1,000 rpm, 10 min), cell pellets thus obtained were washed three times with 0.01% bovine serum albumin (BSA) in PBS and incubated with 10 μl of anti-CD61-fluorescein-5-isothiocyanate (FITC) (Dako Chemicals, Carpenteria, Calif.), 20 μl of anti-CD16-Cy-Chrome (Cy) (BD Pharmingen), 10 μl of anti-glycophorin ACD235a-phycoerythrin (PE) (Dako Chemicals, Carpenteria, Calif.), and 20 μl of anti-CD14-allophycocyanin (APC) (BD Pharmingen) in 200 μl of 0.01% bovine serum albumin (BSA)-PBS at 4° C. for 50 min with spinning so as to achieve homogenous fluorescent staining over the cells. After centrifugation (1,000 rpm, 10 min), the cell pellets thus obtained were washed three times with 0.01% bovine serum albumin (BSA) in PBS. Fluorescence was analyzed on a fluorescence-activated cell sorter (FACS) (Aria) using a Cellquest program.

[3] = tested on: K562 cells; experiment: Megakaryocyte differentiation, CD41/CD61 expression over time by FACS, K562 cells; conditions: 40 μg/ml, 4 days
Method: K562 cells were aliquoted at a density of 2×10^5 cells per well in 6-well plates and treated with 40 μg/ml of (R)-NALPCE, followed by incubation for 4 days. After centrifugation (1,000 rpm, 5 min), the cell pellets thus obtained were washed three times with 0.01% bovine serum albumin (BSA) in PBS. Incubation with 10 μl of anti-CD41-fluorescein-5-isothiocyanate (FITC) (Dako Chemicals, Carpenteria, Calif.) or 20 μl of anti-CD61-phycoerythrin (PE) (BD Pharmingen) in 200 μl of 0.01% bovine serum albumin (BSA)-PBS was conducted at 4° C. for 50 min with spinning to realize homogeneous fluorescent staining. Following centrifugation (1,000 rpm, 10 min), the cell pellets thus obtained were rinsed three times with 0.01% bovine serum albumin (BSA) in PBS. Fluorescence was analyzed on a fluorescence-activated cell sorter (FACS) (Aria) using a Cellquest program.

[4] = tested on: K562 cells; experiment: Cell differentiation of K562 cells on OP9 cells, optical microscopy
Method: A stromal line of OP9 cells derived from […] was aliquoted at a density of 1×10^5 cells in 6-well plates and incubated for 24 hrs. After the OP9 cells were uniformly attached onto the bottom of the plates, K562 cells were layered at a density of 1×10^5 cells on the OP9 cells in 6-well plates. The cells were treated with 40 μg/ml of (R)-NALPCE, or 500 pmole, 10 nmole or 50 nmole of PMA before incubation for 5 days. They were observed under an optical microscope with 200× magnification.

[5] = tested on: K562 cells; experiment: Transmission electron microscopy of cells differentiated from K562 cells on OP9 cells; conditions: 40 μg/ml, 5 days
Method: OP9 cells were aliquoted at a density of 1×10^5 cells in 6-well plates and incubated for 24 hrs. After the OP9 cells were uniformly attached onto the bottom of the plates, K562 cells were layered at a density of 1×10^5 cells over the OP9 cells in 6-well plates. The cells were treated with 40 μg/ml of (R)-NALPCE before incubation for 5 days. Following centrifugation (1,000 rpm, 5 min), the cells were pre-fixed with 2.5% glutaraldehyde in PBS (pH 7.4) for 24 hrs. Thereafter, cell pellets obtained by centrifugation (4,000 rpm, 10 min) were fixed for 1 hr with 1% osmium tetraoxide in 0.1 M PBS (pH 7.4). After being washed with PBS, the post-fixed samples were dehydrated with 60, 70, 80, 90, and 95% ethanol for 10 min each and then twice with 100% ethanol for 10 min each, and embedded in epoxy resin. The embedded samples were sectioned into slices 1 μm thick using an ultramicrotome diamond knife (Richert-Jung, U.S.A.) and stained with 1% toluidine blue for optical microscopy. Separately, ultra-thin sections ranging in thickness from 60 to 70 nm were prepared and stained sequentially with 1-2% uranyl acetate and 1% lead citrate for transmission electron microscopy, in which electrons were accelerated at 75 kV using H-600 TEM (Hitachi, Japan).

In the case of CCCCCCCCCCCCCCCCCC(=O)NC(COP(=O)([O-])OCC[N+](C)(C)C)C(=O)OC [(R)-NALPCE, N-steroyl-O-phosphocholine-D-serine methyl ester], the “fluorescence of fibrinogens bound to glycoprotein IIb/IIIa complexes” value [1] is reported as “increase in a day-dependent manner”, the “expression of CD61, CD235a, CD16 and CD14 receptors” value [2] is reported as “CD61 and CD16 were specifically expressed” and the “CD41 and CD61 expression rate” value [3] is reported as “increase in expression rate in a time-dependent manner”. For the same molecule, the “production or secretion of thrombocytes by differentiated megakaryocytes” value ([4]; (R)-NALPCE with OP9 cells, PMA treatment) was “released a lot of thrombocytes”, the “cell morphology (optical microscope)” value ([4]; K562 cells on OP9 cells, 40 μg/ml, 5 days) was “increased in size in a time-dependent manner, and anucleate cells such as thrombocytes were observed” and the “maturity of megakaryocytes (TEM)” value [5] was “have demarcation channels within which platelets are held”. The “morphology of released platelets (TEM)” value [5] was “morphology similar to that of the pre-existing blood platelets” and the “polymorphonuclear megakaryocytes having at least two nuclei among the differentiated cells” value ([5]; TEM) was ≥ 40%.
